Measurements reported in patent US7049321B2, “Methods and pharmaceutical compositions for treatment of central and peripheral nervous system disorders and compounds useful therefor” (Israel Institute for Biological Research, priority 2002, dated 2006).
Substitutions are numbered along the chain they refer to.

How the values were obtained:
[1] = tested on: Human α-glycoprotein (AGP); test: Protein binding, human α-glycoprotein; type: in vitro ADME; conditions: 10 μM
Description: Protein binding studies were carried out in human plasma, α1-glycoprotein, human serum albumin (HSA), and Dulbecco's Phosphate Buffered Saline (PBS). AF292 was added to a final concentration of 10 μM. […] (μM) and in human […] (AGP), (see Table 1).

[2] = target: T1, rat M1 mAChR (Rattus norvegicus, UniProt P08482); test: PI turnover, rat M1 mAChR; type: cell-based
T1 construct: expressed in transfected cells; host or cells: probably the rat pheochromocytoma cells transfected with M1 mAChR

[3] = CNS safety: general observation and Irwin test in rats; type: in vivo, rat
Description: AF292 was evaluated in rodents for possible effects on general behavior and other CNS related pharmacological effects. […] No behavioral or physical signs were observed 24 hours after administration. All rats were retained for 14 days, and throughout this retention period all rats appeared normal.

[4] = Metabolic stability, rat liver microsomes; type: in vitro ADME; conditions: read-out: Metabolic Stability T1/2
Description: (§1) The metabolic stability of AF292 was evaluated by monitoring its disappearance while incubated with rat, […], monkey, and human hepatic microsomes. Testosterone, and propranolol were run as assay controls.

[5] = target: T2, M1 mAChR (Homo sapiens, UniProt P11229); test: Arachidonic acid (AA) release, M1; type: cell-based
T2 construct: expressed in transfected cells

[6] = target: T3, human M1 (Homo sapiens, UniProt P11229); test: PI hydrolysis in cells transfected with human M1; type: cell-based; design: expressed in transfected cells
T3 sequence (P11229 1-460): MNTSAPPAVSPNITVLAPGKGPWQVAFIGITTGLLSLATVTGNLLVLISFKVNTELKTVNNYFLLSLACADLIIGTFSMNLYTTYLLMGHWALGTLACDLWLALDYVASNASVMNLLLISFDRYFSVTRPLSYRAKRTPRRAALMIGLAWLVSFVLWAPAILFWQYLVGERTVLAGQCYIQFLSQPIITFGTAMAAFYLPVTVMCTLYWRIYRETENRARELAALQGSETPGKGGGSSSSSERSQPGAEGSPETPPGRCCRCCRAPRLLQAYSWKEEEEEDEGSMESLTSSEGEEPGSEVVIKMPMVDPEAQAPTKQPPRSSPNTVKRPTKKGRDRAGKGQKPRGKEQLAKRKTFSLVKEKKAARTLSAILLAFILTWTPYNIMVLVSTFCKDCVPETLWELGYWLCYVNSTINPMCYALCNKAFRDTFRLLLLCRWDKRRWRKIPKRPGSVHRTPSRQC

[7] = target: T4, M1 receptors (Rattus norvegicus, UniProt P08482); test: [3H]PZ competition binding to rat cortical membranes; conditions: for Ki: rat cortex
T4 construct: from tissue; host or cells: rat cortical membranes
T4 sequence (P08482 1-460): T3 sequence (P11229 1-460) with A5V, T254S, P309S, R320K, A337G, I413V
Description: Pirenzepine (PZ), a muscarinic antagonist, binds preferentially to M1 receptors while OXO-M binds to all mAChR subtypes non-selectively; the ratio between the Ki values for PZ versus that of OXO-M may be indicative of the selectivity of the tested compound. The smaller the ratio, the more M1 selective is the tested compound. […] The OXO-M/PZ ratio is ˜0.36 showing a moderately high selectivity for the M1 receptor.

[8] = Metabolic stability, dog liver microsomes; type: in vitro ADME; conditions: read-out: Metabolic Stability T1/2
Description: as §1

[9] = Pharmacokinetic study in dogs; type: in vivo; conditions: beagle, dog, plasma
Description: The results of the PK profile of AF292 in rats and Beagle dogs (overnight fasting; drug administered in water solution; gavage) are listed in Table 1.

[10] = tested on: tau proteins; test: tau phosphorylation, AT8 immunoblot; type: cell-based; conditions: 100 μM; to the control level
Description: Following the experimental design of Sadot et al., J. Neurochem. […] By linking an M1 agonist to an antioxidant moiety tau phophorylation may be decreased, providing a new therapeutic strategy in a variety of CNS disease states due to combined damage due to oxidative stress and tau hyperphosphorylation.

[11] = tested on: rat primary hippocampal cell cultures; test: APPs secretion in rat primary hippocampal cell cultures; type: cell-based; conditions: 100 μm; culture not given
[12] = tested on: cortical and hippocampal cell culture; test: Protection against NMDA-induced cell death; type: cell-based, rat; conditions: for Neuroprotective potency against 200 μM of NMDA vs MK801: 100 μM agonist
[13] = tested on: mice with closed head injury; test: Closed head injury in mice, neurological severity score; type: in vivo; conditions: for Balance test (beam walk): 80% in control
Description: Closed head injury (CHI) was induced in mice as described in Chen et al, J Neurotrauma, 15: 231–237, 1998. Neurological severity scores (NSS) were assessed using a battery of 10 parameters (10=worst outcome, 0=normal function). The compounds tested (1 mg compound/kg body weight) vs. placebo-treated animals were injected ip 5 min after CHI vs. placebo-treated animals. Treated mice were evaluated at 1 h, to determine the severity of injury, and at 24 and 48 h to determine recovery. The NSS was as follows: 1. […] 2.

[14] = in vivo; conditions: mouse
Description: This calculation was based on the brain weight (2 gr) vs. total plasma volume (14 ml).

[15] = 1 mg/kg ip 5 min after CHI, 1 h
[16] = oral, Dogs, extrapolated for 5 mg/kg

T1 sequence (P08482 whole entry): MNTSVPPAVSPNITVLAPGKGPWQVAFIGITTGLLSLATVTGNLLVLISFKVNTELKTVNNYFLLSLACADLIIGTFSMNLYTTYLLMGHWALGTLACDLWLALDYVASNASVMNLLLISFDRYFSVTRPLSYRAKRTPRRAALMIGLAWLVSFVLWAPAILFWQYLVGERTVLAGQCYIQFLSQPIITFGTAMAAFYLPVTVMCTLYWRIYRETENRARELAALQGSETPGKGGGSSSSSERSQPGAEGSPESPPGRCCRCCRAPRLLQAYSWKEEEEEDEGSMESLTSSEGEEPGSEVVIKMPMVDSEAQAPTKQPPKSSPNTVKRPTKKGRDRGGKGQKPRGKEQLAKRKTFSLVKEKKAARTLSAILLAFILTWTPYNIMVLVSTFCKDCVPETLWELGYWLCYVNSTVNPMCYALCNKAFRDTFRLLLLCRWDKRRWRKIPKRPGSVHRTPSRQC

CC[C@@H]1SC2(CCNCC2)NC1=O [AF292, (S)-2-Ethyl-1-thia-4,8-diaza-spiro[4.5]decan-3-one]
Protein Binding [1]: 0%
PI turnover vs. CCh, rat M1 mAChR [2]: PI, rat M1 mAChR; 50%
Physical or behavioral signs (Irwin test) ([3]; 1, 10, 30, 60, 100 mg/kg, p.o.): No significant physical or behavioral signs
half-life [4]: 1.53 h
AA release vs. CCh, M1 mAChR [5]: > 88%
PI turnover vs. carbachol, M1 [6]: ~35%
OXO-M/PZ ratio [7]: ~0.36
Ki [7]: 1640 nM
half-life [8]: > 1.67 h
AUC(0-inf) ([9]; po, Dogs, 5 mg/kg): 4650 ng·h/mL
Cmax ([9]; po, Dogs, 5 mg/kg): 1190 ng/mL
MRT ([9]; po, Dogs, 5 mg/kg): 4.85 h
Tmax ([9]; po, Dogs, 5 mg/kg): 0.8 h
half-life ([9]; po, Dogs, 5 mg/kg): 2.04 h
tau phosphorylation (AT8) [10]: induce dephosphorylation of tau proteins

CC[C@@H]1SC2(CCN(C)CC2)NC1=O [AF267B, (S)-2-ethyl-8-methyl-1-thia-4,8-diaza-spiro[4.5]decan-3-one]
APPs secretion, fold over control (agonists vs CCh) [11]: 2.8 fold
Prevention of NMDA-induced cell death [12]: effective in prevention of cell death
Neuroprotective potency against 200 μM of NMDA vs MK801 [12]: slightly less
Protein Binding [1]: AGP = 5.7%
PI turnover vs. CCh, rat M1 mAChR [2]: PI, rat M1 mAChR: 75%
IRWIN TEST, duration of signs ([3]; 100 mg/kg): duration 3–6 hrs.).
IRWIN TEST, onset of signs ([3]; 100 mg/kg): 0.5 h
IRWIN TEST, signs ([3]; 100 mg/kg p.o.): 100 mg/kg: abnormalities of carriage, and apathy, decreased corneal reflex, diarrhea, and reduced grooming, increased urination, and salivation, lacrimation & and chromodacryorrhea, reduced locomotor and activity, passivity, decreased respiration, and reduced startle response
IRWIN TEST, gross behavior & physiological state ([3]; 1 & 10 mg/kg, p.o.): 1 & 10 no effect on gross behavior
Chromodacryorrhea, dose ([3]; p.o.): Chromodacryorrhea: 100 mg/kg, p.o.
Convulsion, dose ([3]; p.o.): Convulsion: 50 mg/kg, p.o.
Gnawing, dose ([3]; p.o.): Gnawing; 50 mg/kg, p.o.
Hypothermia, dose ([3]; p.o.): Hypothermia: 50 mg/kg, p.o.
Lacrimation, dose ([3]; p.o.): Lacrimation: 50 mg/kg, p.o.
Mydriasis, dose ([3]; p.o.): Mydriasis: 25 mg/kg, p.o.
Salivation, dose ([3]; p.o.): Salivation: 40 mg/kg, p.o.
Sedation, dose ([3]; p.o.): Sedation: 100 mg/kg, p.o.
Dose at which salivation and lacrimation begin ([3]; po, first hour): about 40 mg/kg
half-life [4]: 1.47 h
NSS [13, 15]: 7.89+/−0.26
NSS ([13]; 1 mg/kg ip, 24 h): 3.67+/−0.24
NSS ([13]; 1 mg/kg ip, 48 h): 2.89+/−0.26
Balance test (beam walk) ([13]; 24 h (3 cm)): 22%
Balance test (beam walk) ([13]; 48 h (2 cm)): 33%
AA release vs. CCh, M1 mAChR [5]: 100%
PI turnover vs. carbachol, M1 [6]: ~66%
Ki [7]: 3740 ± 590 nM
MRT [14]: 2.13 h
Tmax [14]: 0.333 to 0.5 h
half-life [8]: > 1.67 h
AUC(0-inf) [9, 16]: 2760 ng·h/mL
Cmax [9, 16]: 1080 ng/mL
AUC(0-inf) ([9]; po, Dogs., 1 mg/kg): 552 ng·h/mL
Cmax ([9]; po, Dogs., 1 mg/kg): 257 ng/mL
MRT ([9]; po, Dogs., 1 mg/kg): 1.96 h
Tmax ([9]; po, Dogs., 1 mg/kg): 0.58 to 0.75 h
half-life ([9]; po, Dogs., 1 mg/kg): 1.33 h
tau phosphorylation (AT8) [10]: induce dephosphorylation of tau proteins

CC1=NCC2(CCN(C)CC2)S1 [AF150(S), 2,8-Dimethyl-1-thia-3,8-diaza-spiro[4.5]dec-2-ene]
APPs secretion, fold over control (agonists vs CCh) [11]: 2.8 fold
Prevention of NMDA-induced cell death [12]: effective in prevention of cell death
Neuroprotective potency against 200 μM of NMDA vs MK801 [12]: slightly less
NSS [13, 15]: 8.00+/−0.21
NSS ([13]; 1 mg/kg ip, 24 h): 4.30+/−0.26
NSS ([13]; 1 mg/kg ip, 48 h): 2.90+/−0.3
Tmax [14]: 0.0167 to 0.167 h
